According to PubChem BioAssay (NCI):
Values joined by “and” are separate entries in the source; they are usually repeats but may differ in a detail not shown here. Equal entries are not always repeated.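 Test compounds were applied to cells in 96-well plates for 48 hours at 5 doses. GI50 is the concentration that inhibits growth by half. TGI is the concentration that stops growth completely.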

Assays:
Experiment in all cases: NCI anticancer screen, dose series, 48 h
NCI-H23 lung = system: NCI-H23 lung
NCI-H460 lung = system: NCI-H460 lung
SF-539 CNS = system: SF-539 CNS
SNB-75 CNS = system: SNB-75 CNS
U251 CNS = system: U251 CNS
UACC-257 melanoma = system: UACC-257 melanoma
DU-145 prostate = system: DU-145 prostate
HOP-62 NSCLC = system: HOP-62 NSCLC
NCI-H522 lung = system: NCI-H522 lung
LOX IMVI melanoma = system: LOX IMVI melanoma

SMILES | TGI (NCI-H23 lung) | GI50 (NCI-H460 lung) | TGI (NCI-H460 lung) | GI50 (SF-539 CNS) | TGI (SF-539 CNS) | GI50 (SNB-75 CNS) | TGI (SNB-75 CNS) | TGI (U251 CNS) | TGI (UACC-257 melanoma) | TGI (DU-145 prostate) | TGI (HOP-62 NSCLC) | TGI (NCI-H522 lung) | TGI (LOX IMVI melanoma) | GI50 (UACC-257 melanoma) | GI50 (HOP-62 NSCLC) | GI50 (LOX IMVI melanoma) | GI50 (NCI-H23 lung) | GI50 (U251 CNS)
COc1ccc(S(=O)(=O)N2CCN(C(=O)c3ccc(-c4ccccc4)cc3)CC2C(=O)NO)cc1 (centres undefined) | 12.5 µM and > 100 µM | 3.62 µM and 29.3 µM | 12.5 µM and > 100 µM | 1.98 µM | 4.22 µM | 3.66 µM | 10.3 µM | 12.5 µM and > 100 µM | 12.5 µM and > 100 µM |  |  |  |  |  |  |  |  | 
O=C(O)c1ccc(CI)cc1 | 33.1 µM |  | 31.7 µM |  | 32.1 µM |  | 49.9 µM | 20.8 µM | 38.9 µM | 35.9 µM | 36.1 µM | 11.8 µM |  |  |  |  |  | 
C#Cc1cccc(N2C(=O)c3c(c(-c4ccccc4)c(-c4ccc(Cc5ccc(-c6c(-c7ccccc7)c7c(c(-c8ccccc8)c6-c6ccccc6)C(=O)N(c6cccc(C#C)c6)C7=O)cc5)cc4)c(-c4ccccc4)c3-c3ccccc3)C2=O)c1 | > 100 µM |  | > 100 µM |  | > 100 µM |  | 79.9 µM | > 100 µM | > 100 µM |  | > 100 µM | > 100 µM |  |  |  |  |  | 
C=C(CC(NC(=O)c1ccc(C(CC)Cc2cnc3nc(N)nc(N)c3n2)cc1)C(=O)O)C(=O)O (centres undefined) | > 100 µM |  | > 100 µM |  | > 100 µM |  | > 100 µM | > 100 µM | > 100 µM |  | 0.742 µM |  | > 100 µM | 0.0599 µM |  |  |  | 
CC1=C(C(=O)CC(=O)C(=O)Nc2cc(C)ccc2C)Sc2ccccc2N1 | > 100 µM |  |  |  | > 100 µM |  |  | > 100 µM | > 100 µM |  | > 100 µM | > 100 µM | > 100 µM |  |  |  |  | 
O=c1/c(=C/c2ccccc2[N+](=O)[O-])sc2nc3ccccc3n12 | > 46.4 µM |  | > 46.4 µM |  | 37.9 µM |  | 33.5 µM | 41.9 µM | > 46.4 µM |  | > 46.4 µM | > 100 µM | 31.9 µM |  |  |  |  | 
COC12CCC(=O)C=C1c1ccccc1N2C(C)=O (centres undefined) | > 100 µM |  | > 100 µM |  | > 100 µM |  | > 100 µM | > 100 µM | > 100 µM |  | > 100 µM |  |  |  |  |  |  | 
CCC[CH2][Sn]([Cl])([Cl])[CH2]CCC | 2.21 µM | 1.75 µM | 3.72 µM | 0.87 µM | 2.19 µM | 0.894 µM | 2.28 µM | 1.62 µM | 2.26 µM |  | 3.36 µM |  | 1.84 µM | 0.854 µM | 1.92 µM | 0.464 µM | 0.62 µM | 0.472 µM
